Values joined by “and” are separate entries in the source; they are usually repeats but may differ in a detail not shown here. Identical values can stand only once.
Key:
[1] = Epalrestat plasma pharmacokinetics (LC-MS/MS) in patient P1; type: in vivo, human
Method: Pharmacokinetics: Epalrestat plasma concentrations were measured using an LC-MS/MS assay that was validated according to principles outlined in FDA Guidance Documents. Epalrestat-d5 was utilized as the internal standard. The mass spectrometer was coupled to a Waters Acquity H class ultra-performance liquid chromatography system (Milford, MA). Data were acquired and analyzed with Waters MassLynx v4.1 software. The chromatographic separation of epalrestat and the internal standard was accomplished using an Agilent Infinity Lab Poroshell 120 EC-C18 column, 2.1×100 mm, 2.7 μm (ChromTech, Apple Valley, MN) with an Agilent Poroshell 120 EC-C18 precolumn, 2.1×5 mm, 2.7 μm (ChromTech). Plasma samples were analyzed after protein precipitation with methanol, concentration to dryness under nitrogen, and reconstitution in methanol:water (1:1 v/v). Pharmacokinetics were estimated by non-linear least squares regression using the program Phoenix WinNonlin.

child with PMM2-CDG = test: Single patient (P1) study: clinical efficacy (ICARS, NPCRS, BMI, weight); type: in vivo, human
Method: Prospectively collected clinical and laboratory data in 24 PMM2-CDG patients: The genetic, laboratory, metabolic, and clinical data of 24 PMM2-CDG patients were evaluated (TABLES 2A and 2B). Disease severity was assessed by Nijmegen Pediatric CDG Rating Scale (NPCRS), (most severe=82; mild (0-14), moderate (15-25), severe (>26)) (Achouitar et al., J Inherit Metab Dis 34:923-927, 2011; and Martinez-Monseny et al., Ann Neurol 85:740-751, 2019). Patient P1 and twin patients P4 and P5 also were discussed elsewhere (Qian et al., JIMD Rep 56:27-33, 2020; and Jaeken et al., Ped Res 14:179, 1980). P1, enrolled in a single IND clinical trial, was additionally evaluated by the International cooperative ataxia rating scale (ICARS) (Trouillas et al., J Neurol Sci 145:205-211, 1997), which assesses limb ataxia, dysarthria, posture and gait disturbances, and oculomotor disorders (0=normal; 100=most severe). Urinary polyols including sorbitol and mannitol were analyzed by GC/MS in 23 out of the 24 PMM2-CDG patients (patient P6 was deceased). In addition, functional in vitro data was collected from the fibroblasts of P1-P6, P8, P10, P17, P19, and P24.
Study design: An open label, single patient (P1) compassionate use study was designed to assess the safety and tolerability of oral epalrestat therapy in a child with PMM2-CDG.
Patient assessment: Prior to the first dose of epalrestat and at 1, 2, 3, 6, 8, 9, 12 months during treatment, concomitant medications and vital signs were recorded and the patient was evaluated using the NPCRS. In addition, blood was drawn for serum chemistry, hematology, and plasma levels of epalrestat. Urine was collected for polyol measurement at baseline and twice over the course of 12 months of therapy.
Drug administration: Epalrestat was administered orally, 3 times per day (TID) before meals in a divided dose (0.8 mg/kg/day; 5 mg TID) of epalrestat (Ono Pharmaceuticals, Osaka, Japan) starting on Day 1 of the study.
Safety and efficacy: Safety measures included vital signs, change in CBC, liver function (INR, bilirubin, transaminases, and albumin) in blood, change in liver elastography, and following the pharmacokinetic profile of epalrestat. The efficacy of epalrestat was studied by clinical follow up (physical exam, NPCRS, ICARS), standard laboratory tests, and transferrin glycoform analysis by mass spectrometry.

[2] = test system: fibroblasts from PMM2-CDG patients; test: Sorbitol and mannitol levels (GC-MS) in fibroblasts treated with epalrestat for 5 days; type: cell-based, human; details: fibroblasts from 5 PMM2-CDG patients vs 5 healthy controls, 10 μM epalrestat 5 days
Method: Metabolomics measurements: Fibroblasts derived from patients carrying selected heterozygous mutations in PMM2 (R141H/F119L, R141H/E139K, R141H/N216I, and R141H/F183S) and healthy controls were cultured according to a protocol described elsewhere (Radenkovic et al., Am J Hum Genet. 2019, 104(5):835-846). Cells were grown in specialized medium and treated with 10 μM epalrestat (Iyer et al., supra) for 5 days with two changes of medium. Non-treated fibroblasts from both groups were used as negative controls. Global metabolomic changes were probed by LC/MS.
Polyols also were analyzed by GC due to the inability of LC/MS to distinguish between the same sized metabolites ([…], GLC1P, GLC6P, sorbitol/mannitol/galactitol, etc.) (Radenkovic et al., supra).

CC(/C=C1\SC(=S)N(CC(=O)O)C1=O)=C\c1ccccc1 [epalrestat]
concentration at 8 h ([1]; human, plasma, oral, 5 mg, patient P1, after eight hours, read-out: trough level before the next dose): 23.4 ng/mL and 100 nM
AUC ([1]; human, plasma, oral, patient P1, after a 5 mg dose, read-out: systemic exposure (AUC)): 2790 ng·h/mL
half-life ([1]; human, plasma, po, 5 mg, patient P1, oral dose, plasma, read-out: t½ (converted)): ~1.04 h
oral clearance ([1]; patient P1, after a 5 mg dose): 1.8 L/h
time of peak concentration after administration ([1]; patient P1, oral 0.27 mg/kg (5 mg) dose): one
peak concentration in plasma ([1]; patient P1, oral 0.27 mg/kg (5 mg) dose, 0.27 mg/kg): 1125 ng/ml and 3.5 μM
plasma concentration over time profile ([1]; patient P1, oral dose): rapid absorption and elimination
t½ ([1]; patient P1, oral dose, plasma): 1 to 2 h
body mass index (BMI) (child with PMM2-CDG; patient P1, 12-month-follow-up, previous trough 14.8 (30th percentile)): 18.5
ICARS score (child with PMM2-CDG; patient P1, epalrestat 0.8 mg/kg/day, within 12 months, from a score of 56): 42
NPCRS score (child with PMM2-CDG; patient P1, months 6, 9, and 12, baseline 21-24): 20-21
sorbitol concentration, mean ratio after treatment ([2]; 1.4 prior to treatment, p=0.00013): 1.25
mannitol concentration, mean ratio after treatment ([2]; 1.5 prior to treatment, p=0.064): 1.2

From US20240003908A1, “POLYOL BIOMARKERS FOR CONGENITAL DISORDERS OF GLYCOSYLATION” (Mayo Foundation for Medical Education and Research, priority 2020, published 2024)
